These are literature values, as cited in patent EP4437048B1, “ENERGY CURABLE INK, COATING AND PRIMER COMPOSITIONS CONTAINING HIGHLY ALKOXYLATED GLYCEROL ACRYLATES FOR RETORT PACKAGING APPLICATIONS” (Sun Chemical B.V., priority 2022, dated 2024).

SMILES strings stand for the structures.

For the series the following is noted: specific migration limit of the acrylate (Table 7).

For `C=CC(=O)OCC(CC)(COCC(CC)(COC(=O)C=C)COC(=O)C=C)COC(=O)C=C` [Di-TMPTA], the SML is 10 ppb.
